Read-outs that look alike come from different tables or passages of the source.
Tested on: HIV-1
Test: HIV-1 infection assay (MT4-GFP cells, inhibition of reproductive ratio R0)
Assay type: cell-based
Method: Assessing Antiviral Potency Using An HIV-1 Infection Assay
HIV-1 replication was monitored using MT4-gag-GFP clone D3 (hereafter designate MT4-GFP), which are MT-4 cells modified to harbor a GFP reporter gene, the expression of which is dependent on the HIV-1 expressed proteins tat and rev. Productive infection of an MT4-GFP cell with HIV-1 results in GFP expression approximately 24 h post-infection.
MT4-GFP cells were maintained at 37° C./5% CO2/90% relative humidity in RPMI 1640 supplemented with 10% fetal bovine serum, 100 U/ml penicillin/streptomycin, and 400 μg/ml G418 to maintain the reporter gene. For infections, MT4-GFP cells were placed in the same medium lacking G418 and infected overnight with H9IIIB or NL4-3 virus at an approximate multiplicity of infection of 0.01 in the same incubation conditions. Cells were then washed and resuspended in either RPMI 1640 containing no serum at 1.6×10^5 cells/mL (serum free conditions), 10% normal human serum at 1.6×10^5 cells/mL (10% NHS conditions) or in 100% normal human serum at 2×10^5 cells/mL (100% NHS conditions). Compound plates were prepared by dispensing compounds taken up in DMSO into wells of 384 well poly D lysine-coated plates (0.2 μl/well) using an ECHO acoustic dispenser. Each compound was tested in a 10 point serial 3-fold dilution (typical final concentrations: 4.2 μM-0.21 nM). Controls included no inhibitor (DMSO only) and a combination of three antiviral agents (efavirenz, indinavir, and the integrase strand transfer inhibitor L-002254051 at final concentrations of 4 μM each). Cells were added (50 μL/well) to compound plates and the infected cells were maintained at 37° C./5% CO2/90% relative humidity.
Infected cells were quantified at two time points, ˜48 h and ˜72 h post-infection, by counting the number of green cells in each well using an Acumen eX3 scanner. The increase in the number of green cells over ˜24 h period gives the reproductive ratio, R0, which is typically 5-15 and has been shown experimentally to be in logarithmic phase (data not shown). Inhibition of R0 is calculated for each well, and IC50 value was determined using non-linear 4-parameter curve fitting.

[1] = MT4-GFP cells infected with H9IIIB or NL4-3 virus, 0% NHS (serum free conditions), read-out: VIKING IP (nM) with 0% NHS
[2] = MT4-GFP cells infected with H9IIIB or NL4-3 virus, 100% normal human serum, read-out: VIKING IP (nM) with 100% NHS
[3] = Human immunodeficiency virus 1, NL43, MT4-GFP cells infected with H9IIIB or NL4-3 virus, 0% NHS (serum free conditions), read-out: VIKING IP (nM) with 0% NHS
[4] = Human immunodeficiency virus 1, NL43, MT4-GFP cells infected with H9IIIB or NL4-3 virus, 100% normal human serum, read-out: VIKING IP (nM) with 100% NHS

Structure (SMILES) | IC50 [1] [nM] | IC50 [2] [nM] | IC50 [3] [nM] | IC50 [4] [nM] | IC50 (Human immunodeficiency virus 1, NL43, read-out: VIKING IP (nM) with 0% NHS) [nM]
CN1C(=O)c2c(O)c(=O)c(C(=O)NCc3ccc(F)cc3F)cn2N(C)C12CC[C@H](P(=O)(O)O)C2 (single isomer, unassigned) [Compound 22] | 120 | 340 | – | – | –
CC(C)OC(=O)OCOP(=O)(OCOC(=O)OC(C)C)[C@H]1CCC2(C1)N(C)C(=O)c1c(O)c(=O)c(C(=O)NCc3ccc(F)cc3F)cn1N2C (single isomer, unassigned) [Compound 23] | 0.28 | 3.6 | – | – | –
CCOP(=O)(OCC)[C@H]1CCC2(C1)N(C)C(=O)c1c(O)c(=O)c(C(=O)NCc3ccc(F)cc3F)cn1N2C (single isomer, unassigned) [Compound 24] | – | – | 9.1 | 4120 | –
CN1C(=O)c2c(O)c(=O)c(C(=O)NCc3ccc(F)cc3F)cn2N(C)C12CC[C@H](P(=O)(O)O)C2 (single isomer, unassigned) [Compound 25] | – | 1070 | 190 | – | –
CC(C)OC(=O)OCOP(=O)(OCOC(=O)OC(C)C)[C@H]1CCC2(C1)N(C)C(=O)c1c(O)c(=O)c(C(=O)NCc3ccc(F)cc3F)cn1N2C (single isomer, unassigned) [Compound 26] | 1 | 35.9 | – | – | –
CCOP(=O)(OCC)[C@@H]1CCC2(C1)N(C)C(=O)c1c(O)c(=O)c(C(=O)NCc3ccc(F)cc3F)cn1N2C (single isomer, unassigned) [Compound 27] | 5.6 | 78.2 | – | – | –
CN1C(=O)c2c(O)c(=O)c(C(=O)NCc3ccc(F)cc3F)cn2N(C)C12CC[C@@H](P(=O)(O)O)C2 (single isomer, unassigned) [Compound 28] | – | 420 | 221 | – | –
CC(C)OC(=O)OCOP(=O)(OCOC(=O)OC(C)C)[C@@H]1CCC2(C1)N(C)C(=O)c1c(O)c(=O)c(C(=O)NCc3ccc(F)cc3F)cn1N2C (single isomer, unassigned) [Compound 29] | 0.2 | – | – | 4.8 | –
CCOP(=O)(OCC)[C@@H]1CCC2(C1)N(C)C(=O)c1c(O)c(=O)c(C(=O)NCc3ccc(F)cc3F)cn1N2C (single isomer, unassigned) [Compound 30] | 13.7 | 1050 | – | – | –
CN1C(=O)c2c(O)c(=O)c(C(=O)NCc3ccc(F)cc3F)cn2N(C)C12CC[C@@H](P(=O)(O)O)C2 (single isomer, unassigned) [Compound 31] | 206 | 1070 | – | – | –
CC(C)OC(=O)OCOP(=O)(OCOC(=O)OC(C)C)[C@@H]1CCC2(C1)N(C)C(=O)c1c(O)c(=O)c(C(=O)NCc3ccc(F)cc3F)cn1N2C (single isomer, unassigned) [Compound 32] | 0.9 | 7 | – | – | –
CCOP(=O)(CCN1n2cc(C(=O)NCc3ccc(F)cc3F)c(=O)c(O)c2C(=O)N(C)C12CCCC2)OCC [Compound 2] | – | – | 2.8 | 81.1 | –
CN1C(=O)c2c(O)c(=O)c(C(=O)NCc3ccc(F)cc3F)cn2N(CCP(=O)(O)O)C12CCCC2 [Compound 4] | – | – | 32.2 | 2750 | –
CC(C)OC(=O)OCOP(=O)(CCN1n2cc(C(=O)NCc3ccc(F)cc3F)c(=O)c(O)c2C(=O)N(C)C12CCCC2)OCOC(=O)OC(C)C [Compound 7] | – | – | 0.2 | 2.1 | –
CC(C)OC(=O)OCOP(=O)(O)CCN1n2cc(C(=O)NCc3ccc(F)cc3F)c(=O)c(O)c2C(=O)N(C)C12CCCC2 [Compound 8] | – | – | 2.3 | 660 | –
CCN1C(=O)c2c(O)c(=O)c(C(=O)NCc3ccc(F)cc3F)cn2N(CCP(=O)(N[C@@H](C)C(=O)OC(C)C)Oc2ccccc2)C12CCCC2 (stereo partly shown) [Compound 9] | – | – | – | – | 3.8
CCOP(=O)(OCC)[C@H]1CCC2(C1)N(C)C(=O)c1c(O)c(=O)c(C(=O)NCc3ccc(F)cc3F)cn1N2C (stereo partly shown) [Compound 21] | – | – | 5.3 | 32.7 | –
CCOP(=O)(CCN1n2cc(C(=O)NCc3ccc(F)cc3F)c(=O)c(O)c2C(=O)N(CC)C12CCCC2)OCC [Compound 33] | – | – | 4.4 | 163 | –
CCN1C(=O)c2c(O)c(=O)c(C(=O)NCc3ccc(F)cc3F)cn2N(CCP(=O)(O)O)C12CCCC2 [Compound 34] | – | – | 15.4 | 2490 | –
CCOP(=O)(OCC)C1CCC2(C1)N(CC)C(=O)c1c(O)c(=O)c(C(=O)NCc3ccc(F)cc3F)cn1N2C (stereo not shown) [Compound 35] | – | – | 9.4 | 126 | –
CCN1C(=O)c2c(O)c(=O)c(C(=O)NCc3ccc(F)cc3F)cn2N(C)C12CCC(P(=O)(O)O)C2 (stereo not shown) [Compound 36] | – | – | 187 | 583 | –
CCN1C(=O)c2c(O)c(=O)c(C(=O)NCc3ccc(F)cc3F)cn2N(C)C12CCC(P(=O)(OCOC(=O)OC(C)C)OCOC(=O)OC(C)C)C2 (stereo not shown) [Compound 37] | – | – | 0.2 | 2.8 | –

— US10548910B2, “Amido-substituted pyridotriazine derivatives useful as HIV integrase inhibitors” (priority 2015, dated 2020)
